Test results reported in ChEMBL document CHEMBL1201862, “PubChem BioAssay data set” (2004).
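Growth conditions: 96-well plates. Treatment: test compound, 48 hours, 5 concentrations. Analysis: linear interpolation between bracketing concentrations; unreached endpoints set to highest concentration. Here, GI50 denotes the concentration required for 50% inhibition of growth.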 The source made the active and inactive calls. Rule as the data show it: active = GI50 up to about 1.1 µM and inactive = higher.

Assays:
Test in all cases: NCI-60 cell line screen, 48 h
786-0 = system: 786-0
A498 = system: A498
A549 = system: A549
ACHN = system: ACHN
CAKI-1 = system: CAKI-1
CCRF-CEM = system: CCRF-CEM
COLO 205 = system: COLO 205
DLD-1 = system: DLD-1
DMS-114 = system: DMS-114
DMS-273 = system: DMS-273
EKVX = system: EKVX
HCT-116 = system: HCT-116
HCT-15 = system: HCT-15
HL-60 = system: HL-60
HOP-62 = system: HOP-62
HOP-92 = system: HOP-92
HT-29 = system: HT-29
IGROV-1 = system: IGROV-1
K562 = system: K562
KM-20L2 = system: KM-20L2
LOX IMVI = system: LOX IMVI
LXFL 529 = system: LXFL 529
M14 = system: M14
M19-MEL = system: M19-MEL
Malme-3M = system: Malme-3M
NCI-H226 = system: NCI-H226
NCI-H23 = system: NCI-H23
NCI-H460 = system: NCI-H460
NCI-H522 = system: NCI-H522
OVCAR-3 = system: OVCAR-3
OVCAR-4 = system: OVCAR-4
OVCAR-5 = system: OVCAR-5
OVCAR-8 = system: OVCAR-8
RXF 393 = system: RXF 393
SF-268 = system: SF-268
SF-295 = system: SF-295
SF-539 = system: SF-539
SK-MEL-28 = system: SK-MEL-28
SK-MEL-2 = system: SK-MEL-2
SK-MEL-5 = system: SK-MEL-5
SK-OV-3 = system: SK-OV-3
SN12C = system: SN12C
SNB-19 = system: SNB-19
SNB-75 = system: SNB-75
SNB-78 = system: SNB-78
SW-620 = system: SW-620
TK-10 = system: TK-10
U-251 = system: U-251
UACC-257 = system: UACC-257
UACC-62 = system: UACC-62
UO-31 = system: UO-31
XF498 = system: XF498
HCC 2998 = system: HCC 2998
MOLT-4 = system: MOLT-4
RPMI-8226 = system: RPMI-8226
SR = system: SR

SMILES: Cc1ccc(/N=N/C2S/C(=C(\C#N)c3nc4ccccc4[nH]3)N(c3ccccc3)C2=O)cc1 (configuration not stated)
- GI50 (786-0): 27.3 µM (inactive)
- GI50 (A498): > 100 µM (inactive)
- GI50 (A549): 88.1 µM (inactive)
- GI50 (ACHN): 34.1 µM (inactive)
- GI50 (CAKI-1): 67.1 µM (inactive)
- GI50 (CCRF-CEM): > 100 µM (inactive)
- GI50 (COLO 205): > 100 µM (inactive)
- GI50 (DLD-1): > 100 µM (inactive)
- GI50 (DMS-114): 65.5 µM (inactive)
- GI50 (DMS-273): > 100 µM (inactive)
- GI50 (EKVX): > 100 µM (inactive)
- GI50 (HCT-116): 90.2 µM (inactive)
- GI50 (HCT-15): > 100 µM
- GI50 (HL-60): > 100 µM (inactive)
- GI50 (HOP-62): 30.1 µM (inactive)
- GI50 (HOP-92): 37.3 µM (inactive)
- GI50 (HT-29): > 100 µM (inactive)
- GI50 (IGROV-1): 29.6 µM (inactive)
- GI50 (K562): 20.4 µM (inactive)
- GI50 (KM-20L2): > 100 µM (inactive)
- GI50 (LOX IMVI): 19.9 µM (inactive)
- GI50 (LXFL 529): > 100 µM (inactive)
- GI50 (M14): 89.1 µM (inactive)
- GI50 (M19-MEL): > 100 µM (inactive)
- GI50 (Malme-3M): > 100 µM (inactive)
- GI50 (NCI-H226): > 100 µM (inactive)
- GI50 (NCI-H23): 86.7 µM (inactive)
- GI50 (NCI-H460): > 100 µM (inactive)
- GI50 (NCI-H522): > 100 µM (inactive)
- GI50 (OVCAR-3): > 100 µM (inactive)
- GI50 (OVCAR-4): 42.8 µM (inactive)
- GI50 (OVCAR-5): 85.1 µM (inactive)
- GI50 (OVCAR-8): 56.1 µM (inactive)
- GI50 (RXF 393): 28.8 µM (inactive)
- GI50 (SF-268): > 100 µM (inactive)
- GI50 (SF-295): 42.6 µM (inactive)
- GI50 (SF-539): 43.6 µM (inactive)
- GI50 (SK-MEL-28): > 100 µM (inactive)
- GI50 (SK-MEL-2): > 100 µM (inactive)
- GI50 (SK-MEL-5): > 100 µM (inactive)
- GI50 (SK-OV-3): > 100 µM (inactive)
- GI50 (SN12C): > 100 µM (inactive)
- GI50 (SNB-19): 99.1 µM (inactive)
- GI50 (SNB-75): 29.2 µM (inactive)
- GI50 (SNB-78): > 100 µM (inactive)
- GI50 (SW-620): > 100 µM (inactive)
- GI50 (TK-10): 36.9 µM (inactive)
- GI50 (U-251): 57.9 µM (inactive)
- GI50 (UACC-257): 55 µM (inactive)
- GI50 (UACC-62): > 100 µM (inactive)
- GI50 (UO-31): 39 µM (inactive)
- GI50 (XF498): 30 µM (inactive)

SMILES: O=P(CCOc1ccccc1OCCP(=O)(c1ccccc1)c1ccc2c(c1)OCCOCCOCCOCCO2)(c1ccccc1)c1ccc2c(c1)OCCOCCOCCOCCO2 (configuration not stated)
- GI50 (786-0): > 100 µM (inactive)
- GI50 (A498): > 100 µM (inactive)
- GI50 (A549): > 100 µM (inactive)
- GI50 (ACHN): > 100 µM (inactive)
- GI50 (CCRF-CEM): > 100 µM (inactive)
- GI50 (COLO 205): > 100 µM (inactive)
- GI50 (DLD-1): > 100 µM (inactive)
- GI50 (DMS-114): > 100 µM (inactive)
- GI50 (DMS-273): > 100 µM (inactive)
- GI50 (EKVX): > 100 µM (inactive)
- GI50 (HCC 2998): > 100 µM (inactive)
- GI50 (HCT-116): > 100 µM (inactive)
- GI50 (HCT-15): > 100 µM
- GI50 (HL-60): > 100 µM (inactive)
- GI50 (HOP-62): > 100 µM (inactive)
- GI50 (HOP-92): > 100 µM (inactive)
- GI50 (HT-29): > 100 µM (inactive)
- GI50 (IGROV-1): > 100 µM (inactive)
- GI50 (K562): > 100 µM (inactive)
- GI50 (KM-20L2): > 100 µM (inactive)
- GI50 (LOX IMVI): > 100 µM (inactive)
- GI50 (LXFL 529): > 100 µM (inactive)
- GI50 (M14): > 100 µM (inactive)
- GI50 (M19-MEL): > 100 µM (inactive)
- GI50 (MOLT-4): > 100 µM (inactive)
- GI50 (Malme-3M): > 100 µM (inactive)
- GI50 (NCI-H226): > 100 µM (inactive)
- GI50 (NCI-H23): > 100 µM (inactive)
- GI50 (NCI-H460): > 100 µM (inactive)
- GI50 (NCI-H522): > 100 µM (inactive)
- GI50 (OVCAR-3): > 100 µM (inactive)
- GI50 (OVCAR-4): > 100 µM (inactive)
- GI50 (OVCAR-5): > 100 µM (inactive)
- GI50 (OVCAR-8): > 100 µM (inactive)
- GI50 (RPMI-8226): > 100 µM (inactive)
- GI50 (RXF 393): > 100 µM (inactive)
- GI50 (SF-268): > 100 µM (inactive)
- GI50 (SF-295): > 100 µM (inactive)
- GI50 (SF-539): > 100 µM (inactive)
- GI50 (SK-MEL-28): > 100 µM (inactive)
- GI50 (SK-MEL-2): > 100 µM (inactive)
- GI50 (SK-MEL-5): > 100 µM (inactive)
- GI50 (SK-OV-3): > 100 µM (inactive)
- GI50 (SN12C): > 100 µM (inactive)
- GI50 (SNB-19): > 100 µM (inactive)
- GI50 (SNB-75): > 100 µM (inactive)
- GI50 (SNB-78): > 100 µM (inactive)
- GI50 (SR): > 100 µM (inactive)
- GI50 (SW-620): > 100 µM (inactive)
- GI50 (TK-10): > 100 µM (inactive)
- GI50 (U-251): > 100 µM (inactive)
- GI50 (UACC-257): > 100 µM (inactive)
- GI50 (UACC-62): > 100 µM (inactive)
- GI50 (UO-31): > 100 µM (inactive)
- GI50 (XF498): > 100 µM (inactive)
